Experimental data as given in patent US20050215531A1, “Use of edg receptor binding agents in cancer” (priority 2002, published 2005).

Key:
Type in all cases: cell-based, human
[1] = system: JNK½; test: Western blot, JNK½ activation in HUVEC
Protocol: (§1) Human umbilical vein endothelial cells (HUVEC) are cultured at 37° C. and 5% CO2 in medium M199 supplemented with 20% SCS (HyClone, Logan, Utah), 1 U/ml heparin, 50 μg/ml ECGS, 2 mM glutamine, 100 U/ml penicillin and 0.1 mg/ml streptomycin. Cells are used for experiments up to passage number 5. Short-starved HUVEC are obtained by starving with 1% SCS-containing M199 for 5 h. Recombinant human VEGF165 is obtained from PromoCell (Heidelberg, Germany). Phospho-specific ERK½, p3B kinase polyclonal antibodies, nonphospho ERK½ antibodies and LumiGLO chemiluminescent reagent are from New England BioLabs (Beverly, Mass.), polyclonal IKB antibodies from Santa Cruz Biotechnology (Santa Cruz, Calif.). Peroxidase-conjugated donkey anti-rabbit immunoglobulin G (IgG) and sheep anti-mouse IgG are purchased from Amersham LIFE SCIENCE (Amersham Place, England). lmmobilon-P transfer membranes are products of Millipore (Bedford, Mass.). S is obtained from Sigma Chemical Co.; S1P is from Biomol. Compound A-phosphate stock solution is prepared by the following protocol. Compound A-phosphate is dissolved in methanol tracing with concentrated HCl (0.5 mg Compound A-phosphate in 500 μl of methanol plus 2 μl of HCl). […]

[2] = system: tissue factor; test: Clotting assay, tissue factor activity on HUVEC
Protocol: (§2) Human umbilical vein endothelial cells (HUVEC) are cultured at 37° C. and 5% CO2 in medium M199 supplemented with 20% SCS (HyClone, Logan, Utah), 1 U/ml heparin, 50 μg/ml ECGS, 2 mM glutamine, 100 U/ml penicillin and 0.1 mg/ml streptomycin. Cells are used for experiments up to passage number 5. Short-starved HUVEC are obtained by starving with 1% SCS-containing M199 for 5 h. Recombinant human VEGF165 is obtained from PromoCell (Heidelberg, Germany). Phospho-specific ERK½, p3B kinase polyclonal antibodies, nonphospho ERK½ antibodies and LumiGLO chemiluminescent reagent are from New England BioLabs (Beverly, Mass.), polyclonal IKB antibodies from Santa Cruz Biotechnology (Santa Cruz, Calif.). Peroxidase-conjugated donkey anti-rabbit immunoglobulin G (IgG) and sheep anti-mouse IgG are purchased from Amersham LIFE SCIENCE (Amersham Place, England). lmmobilon-P transfer membranes are products of Millipore (Bedford, Mass.). S is obtained from Sigma Chemical Co.; S1P is from Biomol. Compound A-phosphate stock solution is prepared by the following protocol. Compound A-phosphate is dissolved in methanol tracing with concentrated HCl (0.5 mg Compound A-phosphate in 500 μl of methanol plus 2 μl of HCl). Solvent from the resulting solution is evaporated under vacuum and the residue obtained is redissolved (variant 1) in 0.1% of defatted BSA solution in sterile deionized water (500 μl) or (variant 2) in 0.5% Triton X-100 in deionized water. The resulting stock solutions (2.5 mM) are sonicated and stored at 4° C.
Cells are seeded in 6-well plates at 80-90% confluency and grown overnight. Cells are scraped from the plates and analyzed for tissue factor activity according to the method as described in Clauss, M., J. Biol. Chem. 271,17629-17634 (1996), Mechtcheriakova, D., Blood 93,3811-3823 (1999). Briefly, after induction for 4 hours with VEGF (1.5 nM), TNF-α (100 U/ml), S (0.5-2 μM), S1P (0.5-2 μM), Compound A (0.5-2 μM), and Compound A-phosphate (0.5-2 μM), cells are washed twice and then scraped in 1 ml clotting buffer (12 mM sodium acetate, 7 mM diethylbarbitate and 130 mM sodium chloride; pH 7.4). 50 μl of resuspended cells are mixed with 50 μl of citrated plasma, and clotting times are determined after recalcfication with 50 μl of 20 mM CaCl2 solution at 37° C. TF-equivalents are determined by using a standard curve obtained from rabbit brain thromboplastin.
An important characteristic feature of both classical inflammatory stimulus TNF-α and the main angiogenic growth factor VEGF on endothellal cells is their potency to upregulate tissue factor. Compound A, Compound A-phosphate, S or S1P are tested whether they also do induce tissue factor on HUVEC. […] The data obtained together indicate that Compound A, Compound A-phosphate, S and S1P mechanistically work distinctly to anglogenic VEGF and inflammatory TNF-α.

[3] = system: p38 kinase; test: Western blot, p38 kinase activation in HUVEC
Protocol: as §1

[4] = system: HUVEC; test: In vitro angiogenesis (tube formation) assay on Matrigel
Protocol: as §2
Morphogenesis of endothelial cells into capillary-like structures on Growth Factor Reduced Matrigel Matrix (BD Bioscience) is performed according to the manufacture procedure. Briefly, HUVEC are trypsinized, resuspended in serum-free Ml 99 medium containing soybean trypsin inhibitor (1 mg/ml, Sigma). After centrifugation cells are resuspended in serum-free medium at a density 0.5×10^5 cells/ml, and cell suspension is seeded in 96-well cell culture plates (Costar, Corning Incorporated) precoated with 50 μl of Matrigel in the absence or presence of various stimuli: VEGF at 1.5 nM, S1P at 0.1-2 μM, S at 0.5-2 μM, Compound A at 0.5-2 μM, and Compound A-phosphate at 0.1-2 μM. Eight hours later, cells on Matrigel are fixed with 3% formaldehyde in PBS and kept at 4° C. Results are quantitated from images made with a Nikon Diaphot microscope equipped with a cooled CCD camera (Kappa GmbH, Gleichen, Germany) by direct counting of branching points on two microscopic fields from each well done in duplicates.
The effect of Compound A and Compound A-phosphate on morphogenic differentiation of endothelial cells is determined using an in vitro angiogenesis assay on Matrigel. Endothelial cell morphogenesis is a complex process that requires cell-extracellular matrix interactions, followed by matrix remodelling, stimulated migration, cell-cell interactions, and perivascular proteolysis. […] This may be interpreted as a possible involvement of EDG-1 (S1P1) receptor-mediated signaling events in Compound A-phosphate-stimulated bioresponses (see e.g. FIG. 3). […] Importantly, high concentrations of S and Compound A (2-5 μM) inhibited VEGF-triggered tube formation.

CCCCCCCCc1ccc(CCC(N)(CO)COP(=O)(O)O)cc1 (stereo not drawn) [Compound A-phosphate]
activation of JNK½ [1]: No activation | effect on TNF-α-induced tissue factor ([2]; TNF-α 100 U/ml): not TNF-α-induced | effect on VEGF-induced tissue factor ([2]; VEGF 1.5 nM): slightly enhance | tissue factor activity ([2]; compound alone or in combinations, 0.5-2 μM, 4 hours): none of these compounds alone or in combinations may elevate tissue factor activity | activation of p38 kinase [3]: No activation | tube formation potency at 2 μM versus 0.5 μM ([4]; 2 μM): less potent than at 0.5 μM | effect on VEGF-mediated remodelling ([4]; 0.5-1 μM, with VEGF): does not attenuate | concentration of maximal activity in capillary-like network formation ([4]; bell-shape dose-dependence, tested 0.1-2 μM, 8 h): around 0.5 μM | number of branching points per microscopic field (induction potency) ([4]; compared with S1P and VEGF): comparable for Compound A-phosphate and S1P
